Assay results: US20240391965A1, “STAPLED ANTIMICROBIAL PEPTIDES (STAMPS) AND USES THEREOF” (Lytica Therapeutics, Inc., priority 2021, published 2024)
Values after ≈ are worked out from the molar mass of the structure shown. Starred links: 1 amine or outer side, 2 acyl side, 3 side chain; linkers in the order of their positions; H or OH if unused. Positions of bridges follow the written chain, without caps; N, C: chain ends. Residues, ends and D or L forms follow the SMILES beside them. Naphthalene(2,6-diCH2) = c1cc2cc(C[*:2])ccc2cc1C[*:1]; pXylylene = c1cc(C[*:2])ccc1C[*:1]; X1 = C(=CC[*:2])C[*:1]

Assays:
[1] = 48 hours cytotoxicity assay (CellTiter-Glo), liver toxicity; format: cell-based, human; details: 48 hours of incubation, CellTiter-Glo; read-out: Inhibitory Concentration at 50% Cytotoxicity (IC50) Human Liver Cells (HepG2)
Outline: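 Viability from CellTiter-Glo luminescence after StAMP dilution series or vehicle acted on HepG2 cells for 48 h at 37 °C. Cells were grown in EMEM plus 10% FBS and given 4 h to attach before dosing.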

[2] = tested on: Pseudomonas aeruginosa (P. aeruginosa); format: cell-based; details: microbroth dilution, 20-24 hours at 37° C.
Outline: (§1)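 MIC = lowest peptide concentration without visible bacterial growth. CLSI-based microbroth dilution, MHB or MHB II, inoculum 5×10^5 CFU/ml, 20-24 h, 37 °C.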

[3] = tested on: Staphylococcus aureus (S. aureus); format: cell-based; details: microbroth dilution, 20-24 hours at 37° C.
Outline: as §1

[4] = tested on: Acinetobacter baumannii (A. baumannii); format: cell-based; details: microbroth dilution, 20-24 hours at 37° C.
Outline: as §1

[5] = tested on: Klebsiella pneumoniae (K. pneumoniae); format: cell-based; details: microbroth dilution, 20-24 hours at 37° C.
Outline: as §1

[6] = tested on: Escherichia coli (E. coli); format: cell-based; details: microbroth dilution, 20-24 hours at 37° C.
Outline: as §1

[7] = 90 minute cytotoxicity assay (LDH release), renal toxicity; format: cell-based; details: 90 minutes of incubation, LDH release; read-out: Inhibitory Concentration at 50% Cytotoxicity (IC50) Human Renal Proximal Tubule Epithelial Cells (RPTEC)
Outline: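 Released lactate dehydrogenase, read as absorbance at 490 nm after 10 min with assay reagent, serves as read-out. Renal proximal tubule epithelial cells received peptide serial dilutions or vehicle for 90 min at 37° C after overnight plating.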

SMILES | IC50 [1] | Minimum Inhibitory Concentration (MIC) P. aeruginosa [2] | Minimum Inhibitory Concentration (MIC) S. aureus [3] | Minimum Inhibitory Concentration (MIC) A. baumannii [4] | Minimum Inhibitory Concentration (MIC) K. pneumoniae [5] | Minimum Inhibitory Concentration (MIC) E. coli [6] | IC50 [7]
CC[C@H](C)[C@H](NC(=O)CN)C(=O)N[C@@H](Cc1ccccc1)C(=O)N[C@@H](CO)C(=O)N[C@@H](CCCCN)C(=O)N[C@@H](CC(C)C)C(=O)N[C@@H](C)C(=O)NCC(=O)N[C@@H](CCCCN)C(=O)N[C@@H](CCCCN)C(=O)N[C@H]1CSCc2ccc(cc2)CSC[C@@H](C(=O)N[C@H](C(=O)N[C@@H](CO)C(=O)NCC(=O)N[C@@H](CC(C)C)C(=O)N[C@@H](CCCCN)C(=O)NCC(N)=O)[C@@H](C)CC)NC(=O)[C@H](CC(C)C)NC(=O)[C@H](CC(N)=O)NC(=O)[C@H](CCCCN)NC1=O [compound 18] (H-GIFSKLAGKKCKNLCISGLKG-NH2; linker 11-15 via pXylylene) | > 200 µg/mL | >64 µg/mL | >64 µg/mL | >64 µg/mL | >64 µg/mL | >64 µg/mL | > 200 µg/mL
CC[C@H](C)[C@H](NC(=O)[C@H](CC(C)C)NC(=O)[C@H](CC(C)C)NC(=O)[C@H](CC(N)=O)NC(=O)[C@H](CCCCN)NC(=O)[C@@H](NC(=O)[C@H](CCCCN)NC(=O)[C@@H]1CSCc2ccc3cc(ccc3c2)CSC[C@H](NC(=O)CN)C(=O)N[C@@H](Cc2ccccc2)C(=O)N[C@@H](CO)C(=O)N[C@@H](CCCCN)C(=O)N[C@@H](CC(C)C)C(=O)N[C@@H](C)C(=O)NCC(=O)N1)[C@@H](C)CC)C(=O)N[C@@H](CO)C(=O)NCC(=O)N[C@@H](CC(C)C)C(=O)N[C@@H](CCCCN)C(=O)NCC(N)=O [compound 52] (H-GCFSKLAGCKIKNLLISGLKG-NH2; linker 2-9 via Naphthalene(2,6-diCH2); N-terminus assumed) | 10 µg/mL (≈ 4.34 µM) | >64 µg/mL | >64 µg/mL | 32 µg/mL | >64 µg/mL | 32 µg/mL | > 200 µg/mL
CC[C@H](C)[C@H](NC(=O)CN)C(=O)N[C@@H](Cc1ccccc1)C(=O)N[C@@H](CO)C(=O)N[C@@H](CCCCN)C(=O)N[C@@H](CC(C)C)C(=O)N[C@@H](C)C(=O)N[C@H]1CSCC=CCSC[C@@H](C(=O)N[C@@H](CC(N)=O)C(=O)N[C@@H](CC(C)C)C(=O)N[C@@H](CC(C)C)C(=O)N[C@H](C(=O)N[C@@H](CO)C(=O)NCC(=O)N[C@@H](CC(C)C)C(=O)N[C@@H](CCCCN)C(=O)NCC(N)=O)[C@@H](C)CC)NC(=O)[C@H]([C@@H](C)CC)NC(=O)[C@H](CCCCN)NC(=O)[C@H](CCCCN)NC1=O [compound 12] (H-GIFSKLACKKICNLLISGLKG-NH2; linker 8-12 via X1) | 50 µg/mL (≈ 22.1 µM) | 16 µg/mL | >64 µg/mL | 4 µg/mL | 16 µg/mL | 4 µg/mL | 70 µg/mL (≈ 31 µM)
CC[C@H](C)[C@H](NC(=O)CN)C(=O)N[C@@H](Cc1ccccc1)C(=O)N[C@@H](CO)C(=O)N[C@@H](CCCCN)C(=O)N[C@@H](CC(C)C)C(=O)N[C@@H](C)C(=O)NCC(=O)N[C@@H](CCCCN)C(=O)N[C@H]1CSCc2ccc(cc2)CSC[C@@H](C(=O)N[C@@H](CC(C)C)C(=O)N[C@H](C(=O)N[C@@H](CO)C(=O)NCC(=O)N[C@@H](CC(C)C)C(=O)N[C@@H](CCCCN)C(=O)NCC(N)=O)[C@@H](C)CC)NC(=O)[C@H](CC(N)=O)NC(=O)[C@H](CCCCN)NC(=O)[C@H]([C@@H](C)CC)NC1=O [compound 15] (H-GIFSKLAGKCIKNCLISGLKG-NH2; linker 10-14 via pXylylene) | 88 µg/mL (≈ 39.1 µM) | 32 µg/mL | >64 µg/mL | 16 µg/mL | 32 µg/mL | 8 µg/mL | 82 µg/mL (≈ 36.4 µM)
CC[C@H](C)[C@H](NC(=O)CN)C(=O)N[C@@H](Cc1ccccc1)C(=O)N[C@@H](CO)C(=O)N[C@@H](CCCCN)C(=O)N[C@@H](CC(C)C)C(=O)N[C@@H](C)C(=O)NCC(=O)N[C@@H](CCCCN)C(=O)N[C@H]1CSCC=CCSC[C@@H](C(=O)N[C@@H](CC(C)C)C(=O)N[C@H](C(=O)N[C@@H](CO)C(=O)NCC(=O)N[C@@H](CC(C)C)C(=O)N[C@@H](CCCCN)C(=O)NCC(N)=O)[C@@H](C)CC)NC(=O)[C@H](CC(N)=O)NC(=O)[C@H](CCCCN)NC(=O)[C@H]([C@@H](C)CC)NC1=O [compound 16] (H-GIFSKLAGKCIKNCLISGLKG-NH2; linker 10-14 via X1) | > 200 µg/mL | >64 µg/mL | >64 µg/mL | 64 µg/mL | >64 µg/mL | 32 µg/mL | > 200 µg/mL
CC[C@H](C)[C@H](NC(=O)[C@H](CC(C)C)NC(=O)[C@H](CC(C)C)NC(=O)[C@H](CC(N)=O)NC(=O)[C@H](CCCCN)NC(=O)[C@@H](NC(=O)[C@H](CCCCN)NC(=O)[C@H](CCCCN)NC(=O)[C@@H]1CSCc2ccc3cc(ccc3c2)CSC[C@H](N)C(=O)N[C@@H]([C@@H](C)CC)C(=O)N[C@@H](Cc2ccccc2)C(=O)N[C@@H](CO)C(=O)N[C@@H](CCCCN)C(=O)N[C@@H](CC(C)C)C(=O)N[C@@H](C)C(=O)N1)[C@@H](C)CC)C(=O)N[C@@H](CO)C(=O)NCC(=O)N[C@@H](CC(C)C)C(=O)N[C@@H](CCCCN)C(=O)NCC(N)=O [compound 50] (H-CIFSKLACKKIKNLLISGLKG-NH2; linker 1-8 via Naphthalene(2,6-diCH2); N-terminus assumed) | 103 µg/mL (≈ 42.4 µM) | >64 µg/mL | 64 µg/mL | 8 µg/mL | 32 µg/mL | 16 µg/mL | 17 µg/mL (≈ 7 µM)
CC[C@H](C)[C@H](NC(=O)CN)C(=O)N[C@H]1CSCC=CCSC[C@@H](C(=O)NCC(=O)N[C@@H](CCCCN)C(=O)N[C@@H](CCCCN)C(=O)N[C@H](C(=O)N[C@@H](CCCCN)C(=O)N[C@@H](CC(N)=O)C(=O)N[C@@H](CC(C)C)C(=O)N[C@@H](CC(C)C)C(=O)N[C@H](C(=O)N[C@@H](CO)C(=O)NCC(=O)N[C@@H](CC(C)C)C(=O)N[C@@H](CCCCN)C(=O)NCC(N)=O)[C@@H](C)CC)[C@@H](C)CC)NC(=O)[C@H](CC(C)C)NC(=O)[C@H](CCCCN)NC(=O)[C@H](CO)NC1=O [compound 1] (H-GICSKLCGKKIKNLLISGLKG-NH2; linker 3-7 via X1) | > 200 µg/mL | 32 µg/mL | >64 µg/mL | 8 µg/mL | 64 µg/mL | 8 µg/mL | > 200 µg/mL
